Article PMC10980815, “Cell surface patching via CXCR4-targeted nanothreads for cancer metastasis inhibition” (Nature Communications, 2024)
Several values for one entry are separate records, joined by “and”; a condition that tells them apart may be missing. Identical values can stand only once. Ends that are not written are not given here.

How the values were obtained:
MMP-9 and TGF-β = assay: Immunofluorescence of MMP-9 and TGF-β in tumor tissues; type: in vivo, female BALB/c mice
Experimental: (§1) To investigate the epithelial-mesenchymal transition process in tumor tissues, immunofluorescent staining of E-cadherin, vimentin, MMP-9, and TGF-β, along with flow cytometry analysis of E-cadherin and vimentin, were applied. For immunofluorescent staining of E-cadherin and vimentin, tumor slices were stained with CoraLite® Plus 647 anti-mouse CD324 (E-cadherin, 1:300 dilution) and anti-vimentin mouse monoclonal antibody (1:500 dilution) at 4 °C overnight, followed by staining with goat anti-mouse IgG H&L Alexa Fluor® 488 (1:1000 dilution). For flow cytometry analysis of E-cadherin and vimentin, single-cell suspensions of tumor tissues were stained with CoraLite® Plus 647 anti-mouse CD324 (E-cadherin, 1:300 dilution) or sequentially stained with anti-vimentin recombinant rabbit monoclonal antibody and goat anti-rabbit IgG H&L Alexa Fluor® 647 (1:1000 dilution), respectively. For immunofluorescent staining of MMP-9 and TGF-β, tumor slices were separately stained with MMP9 Rabbit pAb (1:500 dilution) or anti-TGF beta 1 recombinant rabbit monoclonal antibody (1:500 dilution), followed by staining with goat anti-rabbit IgG H&L Alexa Fluor® 647 (1:1000 dilution), respectively.

[1] = test system: orthotopic 4T1 breast tumors; assay: EMT markers E-cadherin and vimentin in primary tumors (flow cytometry); type: in vivo, female BALB/c mice
Experimental: (§2) 4T1 cells (1 × 10^6 cells) were injected into the third mammary fat pad of female BALB/c mice (6–8-week). […] On day 28, blood samples, lungs and tumors were harvested.
as §1

[2] = test system: orthotopic 4T1 breast tumors; assay: Hydroxyproline assay in tumor tissues; type: in vivo, female BALB/c mice; parameters: unit not given here
Experimental: as §2
To assess fibrosis in tumor tissues, Masson staining, Sirius staining, immunofluorescent staining of α-SMA and fibronectin, and a quantitative hydroxyproline assay were employed. For immunofluorescent staining of α-SMA and fibronectin, tumor slices were stained with anti-alpha smooth muscle actin recombinant rabbit monoclonal antibody (1:500 dilution) and anti-fibronectin mouse monoclonal antibody (1:500 dilution) at 4 °C overnight, followed by staining with goat anti-mouse IgG H&L Alexa Fluor® 488 (1:1000 dilution) and goat anti-rabbit IgG H&L Alexa Fluor® 647 (1:1000 dilution).

LOX = assay: Immunofluorescence of LOX in lung tissues; type: in vivo, female BALB/c mice
Experimental: (§3) To explore the “seed-soil” crosstalk, the serum, intra-tumoral, and pulmonary concentration of LOX was determined using enzyme-linked immunosorbent assay kits (CSB-EL013041MO, CUSABIO, https://www.cusabio.com/) according to the manufacturer’s instructions. The serum, intra-tumoral, and pulmonary concentration of TGF-β was determined using mouse TGF-β ELISA Kit (Cat No.: HB1328-Mu). The formation of PMN was investigated through lung slices subjected to immunofluorescent staining of LOX, E-cadherin, and S100A8. For immunofluorescent staining of E-cadherin, Lung slices were stained with CoraLite® Plus 647 anti-mouse CD324 (E-cadherin, 1:300 dilution). For immunofluorescent staining of LOX and S100A8, Lung slices were separately stained with anti-LOX recombinant rabbit monoclonal antibody (1:500 dilution) or S100-A8 / MRP8 rabbit pAb (1:500 dilution), followed by staining with goat anti-rabbit IgG H&L Alexa Fluor® 647 (1:1000 dilution), respectively. Single-cell suspensions of lungs were analyzed using flow cytometry to assess BMDC (CD11b^+Gr1^+) with PE anti-mouse/human CD11b antibody (1:300 dilution) and FITC anti-mouse Ly-6G/Ly-6C (Gr-1) antibody (1:300 dilution). Chemokine concentrations in lungs were determined using a mouse CXCL12 ELISA kit.

CXCL12 in lungs = assay: Pulmonary CXCL12 ELISA; type: in vivo, female BALB/c mice
Experimental: as §2, §3

4T1 cells = assay: Wound healing assay; type: cell-based, murine; conditions: stimulated 4T1 cells; individual replicates, n = 3
Experimental: Wound healing assay and transwell migration and invasion assay were conducted to investigate in vitro metastasis inhibition. For the wound healing assay, 4T1 cells (5 × 10^5 cells) were cultured in 12-well plates (NEST Biotechnology) as monolayer with more than 90% coverage. Sterile 200 μL pipette tips were used to scrape off the cells, generating a linear cell-free area in the middle of the well. Subsequently, cells were washed by PBS to remove debris. In the stimulated group, 4T1 cells were stimulated with CXCL12 (100 ng/mL) for 1 h. […] In the P-BS-CM1 → P-CM2 group, 4T1 cells underwent consecutive treatment with P-BS-CM1 for 1 h and P-CM2 for 1 h before CXCL12 stimulation (1 mg/mL BS equivalence, CM1:CM2, 1:1 mol%). Images of the wound were recorded by a microscope at 0 h and 24 h after CXCL12 stimulation, and the wound healing rate was calculated using Image J software. For the transwell migration and invasion assay, 4T1 cells (5 × 10^5 cells) were seeded in the non-coated upper chamber (Millipore, 8 μm) or GelNest™ matrigel (NEST Biotechnology) pre-coated upper chamber. The cells underwent the same treatment conditions as wound healing assay. After 24 h of treatment, migrated or invaded cells across the membrane were stained with 0.1% crystal violet, imaged by microscope, and quantified by absorbance at 570 nm after dissolution.

[3] = i.v. days 7, 14, 21 (5 mg/kg BS equivalence; P-CM2 24 h later), analysis day 28, mouse 1 of 5
[4] = ELISA, i.v. days 7, 14, 21, analysis day 28, mouse 1 of 5

Substance | Relative fluorescence intensity of MMP-9 in tumor tissues (MMP-9 and TGF-β; replicate 1) | Relative fluorescence intensity of TGF-β in tumor tissues (MMP-9 and TGF-β; replicate 1) | Relative fluorescence intensity of MMP-9 in tumor tissues (MMP-9 and TGF-β; replicate 2) | Relative fluorescence intensity of TGF-β in tumor tissues (MMP-9 and TGF-β; replicate 2) | Relative fluorescence intensity of MMP-9 in tumor tissues (MMP-9 and TGF-β; replicate 3) | Relative fluorescence intensity of TGF-β in tumor tissues (MMP-9 and TGF-β; replicate 3) | Relative fluorescence intensity of MMP-9 in tumor tissues (MMP-9 and TGF-β; replicate 4) | Relative fluorescence intensity of TGF-β in tumor tissues (MMP-9 and TGF-β; replicate 4) | Relative fluorescence intensity of MMP-9 in tumor tissues (MMP-9 and TGF-β; replicate 5) | Relative fluorescence intensity of TGF-β in tumor tissues (MMP-9 and TGF-β; replicate 5) | Relative fluorescence intensity of E-cadherin ([1]; replicate 1) | Relative fluorescence intensity of vimentin ([1]; replicate 1) | Relative fluorescence intensity of E-cadherin ([1]; replicate 2) | Relative fluorescence intensity of vimentin ([1]; replicate 2) | Relative fluorescence intensity of E-cadherin ([1]; replicate 3) | Relative fluorescence intensity of vimentin ([1]; replicate 3) | Relative fluorescence intensity of E-cadherin ([1]; replicate 4) | Relative fluorescence intensity of vimentin ([1]; replicate 4) | Relative fluorescence intensity of E-cadherin ([1]; replicate 5) | Relative fluorescence intensity of vimentin ([1]; replicate 5) | further results
LGASWHRPDKCCLGYQKRPLPA [Free BS] | 143.238 | 172.974 | 142.904 | 152.446 | 138.899 | 165.051 | 132.502 | 164.828 | 136.888 | 159.609 | 125.013 | 279.76 | 109.513 | 205.554 | 122.233 | 194.538 | 126.237 | 224.095 | 145.15 | 192.228 | hydroxyproline in tumor tissues (Fig. 6b) [2, 3]: 0.5754; hydroxyproline in tumor tissues (Fig. 6b) ([2]; same, mouse 2 of 5): 0.4638; hydroxyproline in tumor tissues (Fig. 6b) ([2]; same, mouse 3 of 5): 0.4618; hydroxyproline in tumor tissues (Fig. 6b) ([2]; same, mouse 4 of 5): 0.441; hydroxyproline in tumor tissues (Fig. 6b) ([2]; same, mouse 5 of 5): 0.4238; Mean fluorescence intensity of LOX in lung tissues (LOX; replicate 1): 145.665; Mean fluorescence intensity of LOX in lung tissues (LOX; replicate 2): 136.817; Mean fluorescence intensity of LOX in lung tissues (LOX; replicate 3): 150.369; Mean fluorescence intensity of LOX in lung tissues (LOX; replicate 4): 132.821; Mean fluorescence intensity of LOX in lung tissues (LOX; replicate 5): 140.21; pulmonary CXCL12 (Fig. 6g) (CXCL12 in lungs; [4]): 440; pulmonary CXCL12 (Fig. 6g) (CXCL12 in lungs; same, mouse 2 of 5): 579; pulmonary CXCL12 (Fig. 6g) (CXCL12 in lungs; same, mouse 3 of 5): 367; pulmonary CXCL12 (Fig. 6g) (CXCL12 in lungs; same, mouse 4 of 5): 552; pulmonary CXCL12 (Fig. 6g) (CXCL12 in lungs; same, mouse 5 of 5): 532; Wound healing rate (%) (4T1 cells): 89.21% and 80.06% and 77.11%
P-BS: HPMA copolymer-BS conjugate, ~6 BS grafts per polymer (LGASWHRPDKCCLGYQKRPLPA; not fully specified (residues 11, 12); also: about 6 peptides grafted on HPMA copolymer via cysteine-maleimide thioether links) | 108.085 | 144.596 | 120.005 | 130.014 | 113.377 | 139.806 | 115.997 | 146.777 | 97.611 | 131.749 | 136.747 | 148.698 | 140.523 | 180.025 | 162.569 | 180.666 | 158.855 | 185.036 | 155.981 | 170.787 | hydroxyproline in tumor tissues (Fig. 6b) [2, 3]: 0.4104; hydroxyproline in tumor tissues (Fig. 6b) ([2]; same, mouse 2 of 5): 0.397; hydroxyproline in tumor tissues (Fig. 6b) ([2]; same, mouse 3 of 5): 0.3878; hydroxyproline in tumor tissues (Fig. 6b) ([2]; same, mouse 4 of 5): 0.3734; hydroxyproline in tumor tissues (Fig. 6b) ([2]; same, mouse 5 of 5): 0.3825; Mean fluorescence intensity of LOX in lung tissues (LOX; replicate 1): 121.535; Mean fluorescence intensity of LOX in lung tissues (LOX; replicate 2): 108.102; Mean fluorescence intensity of LOX in lung tissues (LOX; replicate 3): 109.056; Mean fluorescence intensity of LOX in lung tissues (LOX; replicate 4): 97.784; Mean fluorescence intensity of LOX in lung tissues (LOX; replicate 5): 101.188; pulmonary CXCL12 (Fig. 6g) (CXCL12 in lungs; [4]): 258; pulmonary CXCL12 (Fig. 6g) (CXCL12 in lungs; same, mouse 2 of 5): 221; pulmonary CXCL12 (Fig. 6g) (CXCL12 in lungs; same, mouse 3 of 5): 368; pulmonary CXCL12 (Fig. 6g) (CXCL12 in lungs; same, mouse 4 of 5): 245; pulmonary CXCL12 (Fig. 6g) (CXCL12 in lungs; same, mouse 5 of 5): 267; Wound healing rate (%) (4T1 cells): 50.0872% and 55.1712% and 60.2636%
